Test results: publication PMC12473159, “A Comprehensive Functional Analysis of OsPEAMT1 and OsPEAMT2 Genes in Rice (Oryza sativa L. ssp. japonica)” (Plants, 2025)

Experiments:
OsPEAMT2 = molecular target: T1, OsPEAMT2 (Oryza sativa, UniProt A0A0P0WPX7); test: LC-MS/MS of phosphocholine formed; assay type: biochemical; settings: 200 uM P-EA, 200 uM S-adenosyl-L-methionine, HEPES-KOH pH 9.9, 2 mM EDTA, 30 C, 30 min
T1 construct: gene Os05g0548900; forward primer encodes MDAVAAN
T1 sequence (A0A0P0WPX7 1-495): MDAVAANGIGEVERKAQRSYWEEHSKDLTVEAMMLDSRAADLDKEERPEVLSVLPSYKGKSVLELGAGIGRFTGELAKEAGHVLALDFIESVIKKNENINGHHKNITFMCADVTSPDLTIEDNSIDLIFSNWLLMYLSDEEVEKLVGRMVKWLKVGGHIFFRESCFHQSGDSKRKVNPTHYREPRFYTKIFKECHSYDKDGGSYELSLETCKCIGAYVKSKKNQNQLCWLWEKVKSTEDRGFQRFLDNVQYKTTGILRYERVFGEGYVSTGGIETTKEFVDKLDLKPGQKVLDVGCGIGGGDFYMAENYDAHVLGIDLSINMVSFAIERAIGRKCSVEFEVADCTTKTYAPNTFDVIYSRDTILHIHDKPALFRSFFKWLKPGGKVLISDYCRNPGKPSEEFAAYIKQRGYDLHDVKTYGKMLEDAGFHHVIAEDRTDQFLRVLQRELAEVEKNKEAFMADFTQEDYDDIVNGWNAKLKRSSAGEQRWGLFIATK

OsPEAMT1 = molecular target: T2, OsPEAMT1 (Oryza sativa, UniProt Q6QA26); test: LC-MS/MS of phosphocholine formed; assay type: biochemical; settings: 200 uM P-EA, 200 uM S-adenosyl-L-methionine, HEPES-KOH pH 9.9, 2 mM EDTA, 30 C, 30 min
T2 construct: gene PEAMT
T2 sequence (Q6QA26 20-499): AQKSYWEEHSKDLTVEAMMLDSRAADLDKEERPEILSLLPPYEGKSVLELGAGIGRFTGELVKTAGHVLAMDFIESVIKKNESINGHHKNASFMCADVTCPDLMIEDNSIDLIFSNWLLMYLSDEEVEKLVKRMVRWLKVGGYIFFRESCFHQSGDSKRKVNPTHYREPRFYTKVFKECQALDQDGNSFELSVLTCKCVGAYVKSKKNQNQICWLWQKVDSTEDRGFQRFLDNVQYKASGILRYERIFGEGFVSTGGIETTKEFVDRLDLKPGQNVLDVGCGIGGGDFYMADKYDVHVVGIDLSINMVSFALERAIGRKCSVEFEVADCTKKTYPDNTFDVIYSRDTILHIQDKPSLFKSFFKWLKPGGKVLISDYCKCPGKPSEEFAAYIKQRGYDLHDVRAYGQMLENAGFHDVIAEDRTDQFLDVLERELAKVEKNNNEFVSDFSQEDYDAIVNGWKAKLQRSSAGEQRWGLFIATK

NCCOP(=O)(O)O [P-EA]
LC-MS/MS of phosphocholine formed (OsPEAMT2): both recombinant OsPEAMT1 and OsPEAMT2 have the activity to catalyze substrate P-EA producing P-Cho
LC-MS/MS of phosphocholine formed (OsPEAMT1): both recombinant OsPEAMT1 and OsPEAMT2 have the activity to catalyze substrate P-EA producing P-Cho
